Experimental findings from PubChem BioAssay AID1117348 (Cheminformatics & Chemogenomics Research Group (CCRG), …, 2015) are described below.

As a reminder, the IC50 is the midpoint of a concentration-inhibition curve.

Calls of active or inactive are those of the source. No rule for the calls is given here. Where only a bound is given, the exact number is not on record here.

The test has as its system HeLa cell cycle, increased S-phase population. Put plainly: HeLa S-phase population increase, dose response, cell-based, IC50 (AID 1117348).
On to `O[C@@H](CNC[C@H](O)[C@H]1CCc2cc(F)ccc2O1)[C@@H]1CCc2cc(F)ccc2O1`, for which the IC50 is > 10 µM (inactive). The same measure for `C[C@@H](O[C@H]1OCCN(Cc2n[nH]c(=O)[nH]2)[C@H]1c1ccc(F)cc1)c1cc(C(F)(F)F)cc(C(F)(F)F)c1`: > 10 µM (inactive); for `O=c1[nH]c(=O)n([C@H]2C[C@H](O)[C@@H](CO)O2)cc1I`: > 10 µM (inactive); for `CCc1oc2ccccc2c1C(=O)c1cc(I)c(O)c(I)c1`: > 10 µM (inactive). Take `CN(C)c1ccc2nc3ccc(=[N+](C)C)cc-3sc2c1`: the IC50 was > 10 µM (inactive). Under `COc1ccc2cc1Oc1ccc(cc1)C[C@H]1c3c(cc4c(c3Oc3cc5c(cc3OC)CCN(C)[C@@H]5C2)OCO4)CCN1C` stands > 10 µM (inactive). `CCN(CC)CCOc1ccc(C(O)(Cc2ccc(Cl)cc2)c2ccc(C)cc2)cc1` (centres undefined): the IC50 was > 10 µM (inactive). As to `[O-][n+]1ccccc1SSc1cccc[n+]1[O-]`, the IC50 is > 10 µM (inactive). As to `CC[n+]1c(-c2ccccc2)c2cc(N)ccc2c2ccc(N)cc21`, the IC50 was > 10 µM (inactive). Under `Fc1ccc(C(OCCN2CCN(CCCc3ccccc3)CC2)c2ccc(F)cc2)cc1` stands > 10 µM (inactive); under `CCCCCCCCCCOCC(O)CN` (centres undefined), > 10 µM (inactive); under `CCCCC(CC)CN=C(N)NC(N)=NCCCCCCN=C(N)NC(N)=NCC(CC)CCCC` (centres undefined), > 10 µM (inactive). Take `CC(C)=CCOc1ccc(/C=C/C(=O)c2ccc(OCC=C(C)C)cc2OCC(=O)O)cc1`: the IC50 was > 10 µM (inactive). `O=C1[C@H]2CCCC[C@H]2C(=O)N1CCCCN1CCN(c2nsc3ccccc23)CC1`: the IC50 was > 10 µM (inactive).
